Experimental data as given in patent publication US12780800B1, “Triazole-pyridinyl substituted azacyclohexyl acetic acid compounds as LPA receptor antagonists” (Viva Star Biosciences Limited, priority 2021, dated 2022).

The compounds below were run against T1, LPA1 (Homo sapiens, UniProt Q92633) (assay: LPA1 calcium flux assay (LPA1 functional antagonist assay)). Conditions: PathHunter CHO-K1 EDG2 β-Arrestin cell line; calcium indicator dye; stimulated with EC80 concentration of LPA; FLIPR Tetra.
T1 construct: ProLink (PK) beta-galactosidase enzyme-fragment tag; host or cells: CHO-K1
T1 sequence (Q92633 whole entry, the tested form may be a part): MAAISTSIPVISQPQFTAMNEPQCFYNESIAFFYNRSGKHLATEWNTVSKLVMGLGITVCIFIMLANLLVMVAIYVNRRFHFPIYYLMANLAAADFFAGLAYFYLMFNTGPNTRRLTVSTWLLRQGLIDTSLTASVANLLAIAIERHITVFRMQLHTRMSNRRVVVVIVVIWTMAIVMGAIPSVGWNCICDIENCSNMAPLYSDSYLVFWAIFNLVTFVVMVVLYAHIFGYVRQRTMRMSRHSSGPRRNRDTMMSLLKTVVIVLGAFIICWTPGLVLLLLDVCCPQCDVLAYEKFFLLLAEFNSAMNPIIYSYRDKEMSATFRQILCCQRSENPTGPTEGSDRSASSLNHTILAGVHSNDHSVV
Type: cell-based
Description: Following overnight culture, cells were loaded with calcium indicator dye from the HitHunter Calcium No WashPLUS Assay kit (Eurofins DiscoverX Corporation, Cat #93-0091) for 45 minutes at 37° C. […] After compound addition, assay plates were equilibrated to room temperature for 30 minutes. […] IC50 values were determined by Chemical and Biological Information System from ChemInnovation Software, Inc. The compounds of this invention were tested for their activity to inhibit LPA1 as determined in an LPA1 functional antagonist assay as described herein.
In the case of CCc1nc(-c2nnn(C)c2COc2nccc(C3CCC3)n2)ccc1N1CCC[C@H](CC(=O)O)C1 [Example 74, (R)-2-(1-(6-(5-(((4-cyclobutylpyrimidin-2-yl)oxy)methyl)-1-methyl-11H-1,2,3-triazol-4-yl)-2-ethylpyridin-3-yl)piperidin-3-yl)acetic acid], the IC50 is reported as < 100 nM.
CCc1nc(-c2nnn(C)c2Cn2cc(CC(C)C)ccc2=O)ccc1CN1CC(C(=O)O)CC(F)(F)C1 (single isomer, unassigned) [Example 155, (R) or (S)-1-((2-ethyl-6-(5-((5-isobutyl-2-oxopyridin-1(2H)-yl)methyl)-1-methyl-1H-1,2,3-triazol-4-yl)pyridin-3-yl)methyl)-5,5-difluoropiperidine-3-carboxylic acid] showed an IC50 of 500 to 5000 nM.
For CCc1nc(-c2nnn(C)c2COc2noc(C3CCC3)n2)ccc1N1C[C@@H](CC(=O)O)CC(F)(F)C1 [Example 119, (S)-2-(1-(6-(5-(((5-cyclobutyl-1,2,4-oxadiazol-3-yl)oxy)methyl)-1-methyl-1H-1,2,3-triazol-4-yl)-2-ethylpyridin-3-yl)-5,5-difluoropiperidin-3-yl)acetic acid], the IC50 was 100 to 500 nM.
For CCc1nc(-c2nnn(C)c2COc2nccc(C3CCC3)n2)ccc1N1CCCC(CC(=O)O)C1=O (single isomer, unassigned) [Example 94, (S) or (R)-2-(1-(6-(5-(((4-cyclobutylpyrimidin-2-yl)oxy)methyl)-1-methyl-1H-1,2,3-triazol-4-yl)-2-ethylpyridin-3-yl)-2-oxopiperidin-3-yl)acetic acid], the IC50 was 500 to 5000 nM.
CCc1nc(-c2nnn(C)c2COc2nccc(C3CCC3)n2)cc(F)c1N1CCCC(CC(=O)O)C1 (stereo not shown) [Example 88, 2-(1-(6-(5-(((4-cyclobutylpyrimidin-2-yl)oxy)methyl)-1-methyl-1H-1,2,3-triazol-4-yl)-2-ethyl-4-fluoropyridin-3-yl)piperidin-3-yl)acetic acid] showed an IC50 of 100 to 500 nM.
Cc1nc(-c2nnn(C)c2COc2nccc(C3CCC3)n2)ccc1CN1CC(C(=O)O)CC(F)(F)C1 (single isomer, unassigned) [Example 147, (S) or (R)-1-((6-(5-(((4-cyclobutylpyrimidin-2-yl)oxy)methyl)-1-methyl-1H-1,2,3-triazol-4-yl)-2-methylpyridin-3-yl)methyl)-5,5-difluoropiperidine-3-carboxylic acid] was tested, and the IC50 was < 100 nM.
CCc1nc(-c2nnn(C)c2COc2nc(C3CCC3)nc(N3CCOCC3)n2)ccc1N1CCC[C@H](CC(=O)O)C1 [Example 96, (R)-2-(1-(6-(5-(((4-cyclobutyl-6-morpholino-1,3,5-triazin-2-yl)oxy)methyl)-1-methyl-1H-1,2,3-triazol-4-yl)-2-ethylpyridin-3-yl)piperidin-3-yl)acetic acid] was tested, and the IC50 was 100 to 500 nM.
With CCc1nc(-c2nnn(C)c2COc2cnn(CC(C)C)n2)ccc1N1C[C@@H](CC(=O)O)CC(F)(F)C1 [Example 129, (S)-2-(1-(2-ethyl-6-(5-(((2-isobutyl-2H-1,2,3-triazol-4-yl)oxy)methyl)-1-methyl-1H-1,2,3-triazol-4-yl)pyridin-3-yl)-5,5-difluoropiperidin-3-yl)acetic acid] the IC50 was < 100 nM.
With CCc1nc(-c2nnn(C)c2Cn2ccc(CC3CC3)cc2=O)ccc1N1C[C@@H](CC(=O)O)CC(F)(F)C1 [Example 9, (S)-2-(1-(6-(5-((4-(cyclopropyImethyl)-2-oxopyridin-1(2H)-yl)methyl)-1-methyl-1H-1,2,3-triazol-4-yl)-2-ethylpyridin-3-yl)-5,5-difluoropiperidin-3-yl)acetic acid] the IC50 was > 5000 nM.
CCc1nc(-c2nnn(C)c2Cn2cc(C3CC3)c(C)cc2=O)ccc1N1C[C@@H](CC(=O)O)CC(F)(F)C1 [Example 18] gave an IC50 of 500 to 5000 nM.
In the case of CCc1nc(-c2nnn(C)c2COc2nccc(C3CCC3)n2)ccc1N1CC(CC(=O)O)CCC1=O (single isomer, unassigned) [Example 92, (S) or (R)-2-(1-(6-(5-(((4-cyclobutylpyrimidin-2-yl)oxy)methyl)-1-methyl-1H-1,2,3-triazol-4-yl)-2-ethylpyridin-3-yl)-6-oxopiperidin-3-yl)acetic acid], the IC50 is reported as > 5000 nM.
Cc1nc(-c2nnn(C)c2Cn2ccc(CC3CC3)c(C)c2=O)ccc1N1CC(CC(=O)O)CC(F)(F)C1 (stereo in doubt) [Example 3, (S)-2-(1-(6-(5-((4-(cyclopropylmethyl)-3-methyl-2-oxopyridin-1(2H)-yl)methyl)-1-methyl-1H-1,2,3-triazol-4-yl)-2-methylpyridin-3-yl)-5,5-difluoropiperidin-3-yl)acetic acid] was tested, and the IC50 was 500 to 5000 nM.
CCCc1cn(C)c(=O)c(OCc2c(-c3ccc(N4C[C@@H](CC(=O)O)CC(F)(F)C4)c(CC)n3)nnn2C)n1 [Example 110, (S)-2-(1-(2-ethyl-6-(1-methyl-5-(((4-methyl-3-oxo-6-propyl-3,4-dihydropyrazin-2-yl)oxy)methyl)-1H-1,2,3-triazol-4-yl)pyridin-3-yl)-5,5-difluoropiperidin-3-yl)acetic acid] was tested, and the IC50 was > 5000 nM.
For Cc1nc(-c2nnn(C)c2COc2cc(-n3ccnn3)ncn2)ccc1N1C[C@@H](CC(=O)O)CC(F)(F)C1 [Example 99, (S)-2-(1-(6-(5-(((6-(1H-1,2,3-triazol-1-yl)pyrimidin-4-yl)oxy)methyl)-1-methyl-1H-1,2,3-triazol-4-yl)-2-methylpyridin-3-yl)-5,5-difluoropiperidin-3-yl)acetic acid], the IC50 was < 100 nM.
In the case of CCc1nc(-c2nnn(C)c2Cn2cc(CC(C)C)n(C)c2=O)ccc1N1C[C@H](CC(=O)O)CC(F)(F)C1 (stereo in doubt) [Example 66, 2-[(3R)-1-[2-ethyl-6-(1-methyl-5-{[3-methyl-4-(2-methylpropyl)-2-oxo-2,3-dihydro-1H-imidazol-1-yl]methyl}-1H-1,2,3-triazol-4-yl)pyridin-3-yl]-5,5-difluoropiperidin-3-yl]acetic acid], the IC50 is reported as < 100 nM.
CCc1nc(-c2nnn(C)c2Cn2cc(C#CC3CC3)ccc2=O)ccc1N1C[C@@H](CC(=O)O)CC(F)(F)C1 [Example 21, (S)-2-(1-(6-(5-((5-(cyclopropylethynyl)-2-oxopyridin-1(2H)-yl)methyl)-1-methyl-1H-1,2,3-triazol-4-yl)-2-ethylpyridin-3-yl)-5,5-difluoropiperidin-3-yl)acetic acid] gave an IC50 of 500 to 5000 nM.
With CCc1nc(-c2nnn(C)c2COc2nccc(C3CCC3)n2)ccc1N1CCC[C@@H](CC(=O)O)C1 [Example 81, (S)-2-(1-(6-(5-(((4-cyclobutylpyrimidin-2-yl)oxy)methyl)-1-methyl-1H-1,2,3-triazol-4-yl)-2-ethylpyridin-3-yl)piperidin-3-yl)acetic acid] the IC50 was > 5000 nM.
CCCn1nc(OCc2c(-c3ccc(N4C[C@@H](CC(=O)O)CC(F)(F)C4)c(C)n3)nnn2C)ccc1=O [Example 108, (S)-2-(5,5-difluoro-1-(2-methyl-6-(1-methyl-5-(((6-oxo-1-propyl-1,6 dihydropyridazin-3-yl)oxy)methyl)-1H-1,2,3-triazol-4-yl)pyridin-3-yl)piperidin-3-yl)acetic acid] gave an IC50 of 500 to 5000 nM.
With Cc1nc(-c2onc(C)c2COc2cc(-n3cccn3)ncn2)ccc1N1C[C@@H](CC(=O)O)CC(F)(F)C1 [Example 105, (S)-2-(1-(6-(4-(((6-(1H-pyrazol-1-yl)pyrimidin-4-yl)oxy)methyl)-3-methylisoxazol-5-yl)-2-methylpyridin-3-yl)-5,5-difluoropiperidin-3-yl)acetic acid] the IC50 was < 100 nM.
In the case of Cc1nc(-c2nnn(C)c2COc2nccc(-n3cccn3)n2)ccc1N1CCC[C@H](CC(=O)O)C1 [Example 102, (R)-2-(1-(6-(5-(((4-(1H-pyrazol-1-yl)pyrimidin-2-yl)oxy)methyl)-1-methyl-1H-1,2,3-triazol-4-yl)-2-methylpyridin-3-yl)piperidin-3-yl)acetic acid], the IC50 is reported as < 100 nM.
For CCc1nc(-c2nnn(C)c2COc2nccc(C3CCC3)n2)ccc1CN1CC(C(=O)O)CC(F)(F)C1 (single isomer, unassigned) [Example 152, (S) or (R)-1-((6-(5-(((4-cyclobutylpyrimidin-2-yl)oxy)methyl)-1-methyl-1H-1,2,3-triazol-4-yl)-2-ethylpyridin-3-yl)methyl)-5,5-difluoropiperidine-3-carboxylic acid], the IC50 was < 100 nM.
With CCc1nc(-c2nnn(C)c2CN2C[C@H](CC3CC3)NC2=O)ccc1N1C[C@@H](CC(=O)O)CC(F)(F)C1 [Example 65, 2-((S)-1-(6-(5-(((S)-4-(cyclopropylmethyl)-2-oxoimidazolidin-1-yl)methyl)-1-methyl-1H-1,2,3-triazol-4-yl)-2-ethylpyridin-3-yl)-5,5-difluoropiperidin-3-yl)acetic acid] the IC50 was > 5000 nM.
CCc1nc(-c2nnn(C)c2COc2nccc(-n3cccn3)n2)ccc1N1CCC[C@H](CC(=O)O)C1 [Example 101, (R)-2-(1-(6-(5-(((4-(1H-pyrazol-1-yl)pyrimidin-2-yl)oxy)methyl)-1-methyl-1H-1,2,3-triazol-4-yl)-2-ethylpyridin-3-yl)piperidin-3-yl)acetic acid] was tested, and the IC50 was < 100 nM.
CCc1nc(-c2nnn(C)c2Cn2cc(-n3cccn3)ccc2=O)ccc1N1C[C@@H](CC(=O)O)CC(F)(F)C1 [Example 28, (S)-2-(1-(2-ethyl-6-(1-methyl-5-((2-oxo-5-(1H-pyrazol-1-yl)pyridin-1 (2H)-y)methyl)-1H-1,2,3-triazol-4-yl)pyridin-3-yl)-5,5-difluoropiperidin-3-yl)acetic acid] showed an IC50 of 500 to 5000 nM.
For CCc1nc(-c2nnn(C)c2Cn2cc(OC3CC3)ccc2=O)ccc1N1C[C@@H](CC(=O)O)CC(F)(F)C1 [Example 24, (S)-2-(1-(6-(5-((5-cyclopropoxy-2-oxopyridin-1(2H)-yl)methyl)-1-methyl-1H-1,2,3-triazol-4-yl)-2-ethylpyridin-3-yl)-5,5-difluoropiperidin-3-yl)acetic acid], the IC50 was < 100 nM.
